Series [1] is described as follows: CCClick: 37% aq formaldehyde (5 mM, 5 eq) bridges the two exocyclic methylene carbons of a Fischer base dimer (two C-C bonds), then hemin (1 eq)/air oxidative dehydrogenation, one pot; Al2O3 column. Particulars: the molecule shown is the open-chain precursor, DMF, 1.0 mM, 37.0 °C, 12.0 h.
The nature of series [2]: CCClick: formaldehyde (10 mM) bridges the two exocyclic methylene carbons of a Fischer base dimer (Knoevenagel dehydration cyclization, two C-C bonds), then hemin (1 mM)/air oxidative dehydrogenation to cyclic trimethine cyanine. Particulars: the molecule shown is the open-chain precursor, DMF, 37.0 °C, 12.0 h.

Molecule `C=C1N(CCCCCCN2C(=C)C(C)(C)c3c2ccc2ccccc32)c2ccc3ccccc3c2C1(C)C` [FB1 -> CY-1] yielded a ring closure, isolated yield in series [1] (13-membered ring) of 62%. Besides, in series [2] (13-membered ring), the ring closure, conversion by HPLC came to 90%.

`C=C1N(CCCCCCN2C(=C)C(C)(C)c3c2ccc2ccccc32)c2ccc(OCCCCCC[P+](c3ccccc3)(c3ccccc3)c3ccccc3)cc2C1(C)C.[I-]` [FB2 -> CY-2]: the ring closure, isolated yield in series [1] (13-membered ring) is 57%. The ring closure, conversion by HPLC in series [2] (13-membered ring) was 90%.

Regarding `C=C1N(CCCCCCN2C(=C)C(C)(C)c3c2ccc2ccccc32)c2ccccc2C1(C)C` [FB3 -> CY-3], the ring closure, isolated yield in series [1] (13-membered ring) was 35%. In series [2] (13-membered ring), the ring closure, conversion by HPLC was determined as 48%.

For `C=C1N(CCCCCCN2C(=C)C(C)(C)c3cc(OC)ccc32)c2ccc(OC)cc2C1(C)C` [FB4 -> CY-4], the ring closure, isolated yield in series [1] (13-membered ring) was 40%. Besides, the ring closure, conversion by HPLC in series [2] (13-membered ring) was 85%.

In turn, `C=C1N(CCCCCCN2C(=C)C(C)(C)c3ccccc32)c2ccccc2C1(C)C` [FB5 -> CY-5] yielded a ring closure, isolated yield in series [1] (13-membered ring) of 26%. Also, the ring closure, conversion by HPLC in series [2] (13-membered ring) was 31%.

In series [1] (19-membered ring), `C=C1N(CCCCCCCCCCCCN2C(=C)C(C)(C)c3ccccc32)c2ccccc2C1(C)C` [FB6 -> CY-6] came in with a ring closure, isolated yield of 29%. For the same molecule, the ring closure, conversion by HPLC in series [2] (19-membered ring) turned out to be 31%.

The molecule `C=C1N(CCCCCCCCCCCCCCCCCCN2C(=C)C(C)(C)c3ccccc32)c2ccccc2C1(C)C` [FB7 -> CY-7] displayed a ring closure, isolated yield in series [1] (25-membered ring) of 22%. In series [2] (25-membered ring), this molecule gave a ring closure, conversion by HPLC of 24%.

As to `C=C1N(CCOCCOCCN2C(=C)C(C)(C)c3c2ccc2ccccc32)c2ccc3ccccc3c2C1(C)C` [FB8 -> CY-8], in series [1] (15-membered ring), the ring closure, isolated yield was found to be 16%. In series [2] (15-membered ring), this molecule yielded a ring closure, conversion by HPLC of 34%.

`C=C1N(CCCCCCCCCCCCN2C(=C)C(C)(C)c3c2ccc2ccccc32)c2ccc3ccccc3c2C1(C)C` [FB9 -> CY-9] displayed a ring closure, isolated yield in series [1] (19-membered ring) of 44%. In addition, the ring closure, conversion by HPLC in series [2] (19-membered ring) turned out to be 77%.

These data come from paper PMC12666538.
